The subject of test [1] is oxotremorine-induced salivation. Kind of test: In vivo rat salivation assay. To be noted: for ID50 bladder/salivation selectivity ratio: comparison of ID50 values of rat bladder assay and rat salivation assay. The procedure:
Female Sprague-Dawley rats weighing 200 to 300 g were anesthetized with urethane (1.5 g/kg, s.c., Sigma, St. Louis, Mo.), with a supplement of 0.25 g/kg, s.c. urethane as needed. Urethane was administered at a concentration of 0.25 g/mL.
Rats were placed on a heated blanket on their dorsal side in an inclined position (20° angle) position (head down). A swab was placed in the rat's mouth. The test compound or vehicle was administered intravenously via the tail vein. After 5 min., oxotremorine (1.0 mg/kg) was administered subcutaneously. The swab was discarded and replaced by a pre-weighed swab. Saliva was then collected for 10 min. and then the swab was removed and re-weighed to determine the output of saliva. Dose-response curves were fitted with a four parameter logistic equation to obtain estimates of ID50 (dose required to produce 50% of the maximal response).
By comparing the ID50 values determined in the rat bladder assay and rat salivation assay, the in vivo bladder/salivation selectivity ratio was calculated for the compounds tested.

Test [2] concerns the target T1, hM3 muscarinic receptor subtype (Homo sapiens, UniProt P20309).
T1 construct: expressed in transfected cells; membrane preparation
Kind of test: Radioligand binding assay ([3H]NMS displacement), hM3. As to conditions: ratio of Ki values. The procedure:
(§1) A. Membrane Preparation from Cells Expressing hM1, hM2, hM3 and hM4 Muscarnic Receptor Subtypes
(§2) CHO (Chinese hamster ovary) cell lines stably expressing cloned human hM1, hM2, hM3 and hM4 muscarinic receptor subtypes, respectively, were grown to near confluency in medium consisting of HAM's F-12 supplemented with 10% FBS (Fetal Bovine Serum) and 250 μg/mL Geneticin. The cells were grown in a 5% CO2, 37° C. incubator and lifted with dPBS+2 mM EDTA. Cells were collected by 5 minute centrifugation at 650×g, and cell pellets were either stored frozen at −80° C. or membranes were prepared immediately. […] Protein concentration of the membrane suspension was determined by the method of Lowry, O. et al., (1951) Journal of Biochemistry: 193, 265. […]
(§3) Radioligand binding assays were performed in 96-well microtiter plates in a total assay volume of 100 μL. […] Filter plates were rinsed three times with wash buffer (10 mM HEPES) to remove unbound radioactivity. […] The plates were then counted in a PerkinElmer Topcount liquid scintillation counter (PerkinElmer Inc., Wellesley, Mass.). Binding data were analyzed by nonlinear regression analysis with the GraphPad Prism Software package (GraphPad Software, Inc., San Diego, Calif.) using the one-site competition model. […]

Test [3] concerns volume-induced bladder contraction amplitude (VIBCAmp). Nature of the test: In vivo rat bladder assay. To be noted: anesthetized female Sprague-Dawley rats; intravenous; normalized to atropine response. The procedure:
Female Sprague-Dawley rats (Harlan, Indianapolis, Ind.) weighing 200 to 300 g were anesthetized with urethane (1.5 g/kg, s.c., Sigma, St. Louis, Mo.), with a supplement of 0.25 g/kg, s.c. urethane as needed. Urethane was administered at a concentration of 0.25 g/mL.
Rats were prepared for surgery by shaving the neck and abdomen and cleansing with ethanol wipes. First, an incision was made on the ventral surface. An intravenous catheter was placed by isolating and ligating the femoral vein. […]
Thereafter, an intravenous dose of the test compound was administered and changes in VIBCAmp were recorded for 15 minutes. Atropine (0.1 mg/kg) was then administered intravenously (1 mL/kg) as a positive control and VIBCAmp and data was recorded for an additional 15 minutes. […]
Alternatively, after the vehicle, increasing cumulative intravenous doses of the test compound were administered at 15 minute intervals (1 mL/kg) and changes in VIBCAmp were recorded for 15 minutes. […]
The average VIBCAmp during the 5-15 minute period after test compound and atropine was determined and subtracted from the average VIBCAmp during the 5-15 minute post-vehicle period to obtain the test compound or atropine-induced change in VIBCAmp. […]

For a further test, the target named is T2, hM2 receptor (Homo sapiens, UniProt P08172).
T2 construct: expressed in transfected cells; membrane preparation
T2 sequence (P08172 1-466): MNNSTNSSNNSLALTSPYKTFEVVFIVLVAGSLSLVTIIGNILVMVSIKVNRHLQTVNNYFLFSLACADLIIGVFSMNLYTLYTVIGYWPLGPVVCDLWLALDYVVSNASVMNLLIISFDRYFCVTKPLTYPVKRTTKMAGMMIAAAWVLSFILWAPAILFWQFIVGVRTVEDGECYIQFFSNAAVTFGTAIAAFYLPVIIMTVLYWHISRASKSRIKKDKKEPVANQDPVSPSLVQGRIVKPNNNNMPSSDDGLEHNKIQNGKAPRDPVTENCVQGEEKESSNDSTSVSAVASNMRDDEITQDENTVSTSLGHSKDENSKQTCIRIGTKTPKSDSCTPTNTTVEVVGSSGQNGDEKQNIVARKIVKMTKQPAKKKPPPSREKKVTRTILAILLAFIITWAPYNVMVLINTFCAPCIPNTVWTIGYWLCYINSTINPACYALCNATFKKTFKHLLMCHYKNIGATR
Kind of test: Blockade of agonist-mediated GTPγ[35S] binding. In kind it is biochemical. To be noted: CHO-K1 cell membranes expressing hM2; carbachol at EC90. The procedure:
A. Blockade of Agonist-Mediated GTPγ[^35S] Binding
In this assay, the functional potency of a test compound was determined by measuring the ability of the test compound to block carbachol-stimulated GTPγ[^35S] binding in CHO-K1 cells expressing the hM2 receptor.
CHO-K1 cells stably expressing the hM2 muscarinic receptor were grown in medium consisting of Hams F-12 media supplemented with 10% Fetal Bovine Serum and 500 μg/ml of Geneticin (G-418). Cells were incubated in a 5% CO2, humidified incubator at 37° C. Cells were grown to confluence and harvested with dPBS+2 mM EDTA and pelleted by centrifugation at 250×g for 10 minutes.
Cells from the centrifuged pellets were resuspended in homogenization buffer (10 mM HEPES, 10 mM EDTA, pH 7 at 4° C.). […]
To determine the ability of a test compound to inhibit carbachol-stimulated GTPγ[^35S] binding, the following was added to each well of 96 well plates: 25 μL of assay buffer with GTPγ[^35S] and GDP, 25 μL of diluted test compound (prepared as described above), and 25 μL CHO cell membranes expressing the hM2 receptor. […] After the pre-incubation period, 25 μL of carbachol at the final concentration of its EC90 value determined earlier in the day was added to each plate. […]
Test compound potency (IC50) was determined using iterative curve fitting (GraphPad Prism 3.0 software; single site competition curve). […]
A general note: GTPγS resists hydrolysis and so accumulates on activated G proteins.

Test [4] concerns the target T3, hM2 muscarinic receptor subtype (Homo sapiens, UniProt P08172).
T3 construct: expressed in transfected cells; membrane preparation
T3 sequence (P08172 1-466): T2 sequence (P08172 1-466)
Nature of the test: Radioligand binding assay ([3H]NMS displacement), hM2. To be noted: [3H]NMS at 1 nM; membranes of CHO cells expressing hM2. The procedure: as §1, §2, §3

Bounds are passed on as bounds.

T1 sequence (P20309 whole entry): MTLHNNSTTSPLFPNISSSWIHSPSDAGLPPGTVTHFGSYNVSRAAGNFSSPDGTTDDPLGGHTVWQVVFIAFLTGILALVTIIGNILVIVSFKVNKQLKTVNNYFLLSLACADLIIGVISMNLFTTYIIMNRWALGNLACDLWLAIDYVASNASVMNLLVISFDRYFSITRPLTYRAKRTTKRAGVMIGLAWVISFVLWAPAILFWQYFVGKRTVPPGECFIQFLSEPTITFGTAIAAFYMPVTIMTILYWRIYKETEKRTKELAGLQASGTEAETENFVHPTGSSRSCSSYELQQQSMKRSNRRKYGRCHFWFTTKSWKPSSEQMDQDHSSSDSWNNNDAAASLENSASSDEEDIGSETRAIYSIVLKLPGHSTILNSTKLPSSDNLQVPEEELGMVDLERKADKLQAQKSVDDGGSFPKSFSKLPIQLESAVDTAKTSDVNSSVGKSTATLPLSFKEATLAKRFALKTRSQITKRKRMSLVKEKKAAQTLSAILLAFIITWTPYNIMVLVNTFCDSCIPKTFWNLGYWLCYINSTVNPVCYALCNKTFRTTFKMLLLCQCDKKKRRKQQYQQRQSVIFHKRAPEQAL

As for `CCN(CC)CC#CCOC(=O)C(O)(c1ccccc1)C1CCCCC1` (centres unmarked) [oxybutynin, reference compound], the “ID50 bladder/salivation selectivity ratio” value in test [1] is “about 1.4”.
The same measure, in the same setting: to `Cc1ccc(O)c([C@H](CCN(C(C)C)C(C)C)c2ccccc2)c1` [tolterodine, reference compound] belongs approximately 4.8.
For orientation: Ki means the equilibrium dissociation constant of an inhibitor or competing ligand from its target. A low value points to a stronger hold on the target. With `COc1cccc(OC)c1CN1CCC(N(C)CCCCOCCCCN2CC[C@@H](C(C(N)=O)(c3ccccc3)c3ccccc3)C2)CC1` [Example 4], the hM3/hM2 ratio entry in test [2] is on record as “greater than or equal to 5”. Also, in test [3], the “ID50 (rat bladder assay)” value is on record as “less than or equal to 0.1 mg/kg”. In addition, in test [1] (anesthetized female Sprague-Dawley rats, intravenous, oxotremorine 1.0 mg/kg s.c.), the “ID50 (rat salivation assay)” value was “greater than or equal to 1 mg/kg”. Besides, in test [1], the “ID50 bladder/salivation selectivity ratio” value was “greater than 10”. Besides, the results for the Ki (on hM2 receptor; in test [4]) were less than 0.01 µM and less than 0.02 µM, respectively.

The values above are taken from US8080565B2, “Substituted 4-amino-benzylpiperidine compounds” (Theravance, Inc., priority 2003, dated 2011).
